Where two headings read alike, the source gives them in different places.
Assays:
[1] = test system: Candida albicans ATCC 90028 NCCLS11; test: Antifungal MIC assay; type: cell-based; details: for MIC: Candida albicans, ATCC90028, comparator antifungals, read-out: MIC* Candida albicans ATCC 90028
Method in brief: (§1)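 Broth microdilution in YNB medium, final inoculum 2.5 × 10^3 CFU/mL from colonies grown on YPD agar (30 °C, 3 days). Static incubation, 35 °C, 36 h. MIC = lowest concentration inhibiting growth ≥80%, per CLSI M27 scoring.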

[2] = test system: Candida auris CBS12373 KCTC 17810; test: Antifungal MIC assay, extended panel; type: cell-based; details: for MIC: read-out: MIC* Candida auris CBS12373
Method in brief: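 Yeast was grown for 3 days at 30 °C on YPD agar. Five colonies were suspended to 1 × 10^6 to 5 × 10^6 CFU/mL, checked by OD530, diluted in YNB medium, and dispensed onto compound-loaded 384-well NBS plates at 2.5 × 10^3 CFU/mL in 50 μL. Plates were covered and incubated without shaking at 35 °C for 36 h to determine MIC.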

[3] = test system: Candida auris CBS10913 JCM 15448; test: Antifungal MIC assay, extended panel; type: cell-based; details: for MIC: Candidozyma auris, comparator antifungals, read-out: MIC* Candida auris CBS10913
Method in brief: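 Yeast strains were grown on YPD agar at 30 °C for 3 days. Five colonies were suspended to 1 × 10^6 to 5 × 10^6 CFU/mL (by OD530), diluted in YNB medium, and dispensed into compound-containing 384-well NBS plates to 2.5 × 10^3 CFU/mL in 50 μL. Covered plates were held at 35 °C for 36 h without shaking, and MIC was determined by broth dilution.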

C. albicans (ATCC 90028) [4] = test: Galleria mellonella infection (log CFU reduction) assay; type: in vivo, Candida albicans in Galleria mellonella larvae; details: 1 mM, 10 μL; Pt1 19 mg/kg, Pt2 28 mg/kg, fluconazole 12 mg/kg; 24 h at 37 °C; vs 10% DMSO control
Method: To quantify the possible protective effect of Pt1 and Pt2 in G. mellonella challenged with C. albicans, we conducted a CFU reduction assay with these compounds. Briefly, G. mellonella larvae were inoculated with C. albicans (ATCC 90028) and incubated for 2 h at 37 °C. The larvae were then injected with 10 μL of the corresponding compound solution (1 mM) or control (same concentration and injection volume) and incubated for 24 h at 37 °C. The larvae were then anesthetized, macerated, and serially diluted onto SDA (Sabouraud dextrose agar) plates. After 48 h of incubation, the CFUs were counted.
A log CFU reduction assay was conducted for two compounds and two control groups. […] Fluconazole (1 mM) and 10% DMSO were used once again as the control groups. Fifteen G. mellonella larvae (200–250 mg) per test group were selected and inoculated with 10 μL of C. albicans at a concentration of 5 × 10^7 cells/mL and incubated on 90 mm Petri dishes in groups of five larvae for 2 h at 37 °C. Larvae were then subsequently injected with 10 μL of the corresponding test compound or control and returned to Petri dishes to incubate for 24 h at 37 °C.
Larvae were then anesthetized on ice for 5 to 10 min before being placed in individual prefilled 2 mL tubes with 3.0 mm diameter zirconium beads with 1000 μL of PBS. They were then macerated briefly using the BeadBug 6 Homogenizer (Benchmark Scientific, USA) in two 45 s intervals at 4350 rpm. After homogenization, serial dilutions of 1:100, 1:1000, and 1:10,000 were then made for each larva/tube, and 100 μL of the dilution was spread plated onto SDA plates with 50 μg/mL chloramphenicol. Plates were then incubated at 27 °C for 48 h before CFUs were counted.
A one-way ANOVA was conducted to compare the CFU counts for Pt1, Pt2, and both controls. After a significant difference was observed between the groups, a subsequent Tukey’s pairwise test was used to compare the individual test groups with each other.

[5] = test system: Cryptococcus neoformans H99 ATCC 208821 type strain; test: Antifungal MIC assay; type: cell-based; details: for MIC: Cryptococcus neoformans, ATCC208821, comparator antifungals, read-out: MIC* Cryptococcus neoformans ATCC 208821
Method in brief: as §1

C. albicans (ATCC 90028) [6] = test: Galleria mellonella infection (survival) assay; type: in vivo, Candida albicans in Galleria mellonella larvae; details: G. mellonella inoculated with C. albicans, 10 μL compound solution, 5 days, vs untreated control
Method: In an initial survival assay, G. mellonella larvae were inoculated with C. albicans (ATCC 90028). The larvae were then injected with 10 μL of the compound solution, and their survival was monitored for the next 5 days. Fluconazole and 10% DMSO injections were used as controls.
The globally available strains for C. albicans and C. neoformans, namely, ATCC 90028 and H99, respectively, were used to assess the antifungal potential of the panel of cobalt complex compounds in the G. mellonella insect model. Each strain was cultured on Sabouraud dextrose agar (SDA) for 24–48 h at 27 °C prior to inoculation. Yeast colonies were then suspended in a phosphate-buffered saline solution (PBS), and cells’ concentrations were adjusted using a Neubauer counting chamber to 5 × 10^7 cells for ATCC 90028 and 1 × 10^8 cells for H99. Compounds were prepared by dissolving in 100% dimethylsulfoxide (DMSO) to 4 or 10 mM depending on compound solubility before being further diluted with water to 0.4 or 1 mM for injection into larvae.
Each group of larvae was subsequently incubated at 37 °C for 2 h in 90 mm Petri dishes. After incubation, larvae were injected with 10 μL of the compound into the last right pro-leg and returned to Petri dishes to incubate at 37 °C for 5 days. In addition to the panel of metal compounds, fluconazole (FLC) was included as a positive control (1 and 0.4 mM) and reference antifungal. Larvae inoculated with just the fungal strains and the fungal strains with 10% DMSO were also included as comparison groups. Larvae injected concurrently with PBS instead of fungal inoculum and compounds were used as negative controls. All larvae were checked daily for survival.

[7] = test system: human ovarian carcinoma cell line A2780; details: cited from earlier work
human red blood cells = type: cell-based
Method in brief: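 Washed human erythrocytes at 0.5 × 10^8 cells/mL incubated with compound, then centrifuged. Haemolysis read as supernatant OD405, normalised to untreated cells (0%) and 1% Triton X-100 (100%), with melittin as internal plate control.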

[8] = test system: Cryptococcus deuterogattii CBS7750 VGII; Serotype B; test: Antifungal MIC assay, extended panel; type: cell-based; details: extended panel; 50% inhibition, MIC score 2
[9] = test system: Candida tropicalis ATCC 750; test: Antifungal MIC assay, extended panel; type: cell-based; details: extended panel; 50% inhibition, MIC score 2
[10] = test system: HEK-293 human embryonic kidney cells ATCC CRL-1573
Method: The cells were incubated together with the compounds for 20 h at 37 °C in 5% CO2. […] Tamoxifen (Sigma T5648) was used as internal control on each plate.

[11] = test system: Cryptococcus deuterogattii ATCC 32609 VGII; test: Antifungal MIC assay, extended panel; type: cell-based; details: extended panel; 50% inhibition, MIC score 2
[12] = test system: Cryptococcus deuterogattii ATCC 32609 VGII; test: Antifungal MIC assay, extended panel; type: cell-based; details: extended panel, second batch; ≥80 or ≥50% inhibition
[13] = test system: Candida tropicalis ATCC 750; test: Antifungal MIC assay, extended panel; type: cell-based; details: extended panel, second batch; ≥80 or ≥50% inhibition
Method in brief: as §1

[14] = test system: Candida glabrata ATCC 90030 NCCLS 84; test: Antifungal MIC assay, extended panel; type: cell-based; details: extended panel, second batch; ≥80 or ≥50% inhibition
Method in brief: as §1

[15] = test system: Cryptococcus deuterogattii CBS7750 VGII; Serotype B; test: Antifungal MIC assay, extended panel; type: cell-based; details: extended panel, second batch; ≥80 or ≥50% inhibition
Method in brief: as §1

[16] = test system: Candida glabrata ATCC 90030 NCCLS 84; test: Antifungal MIC assay, extended panel; type: cell-based; details: extended panel; 50% inhibition, MIC score 2
[17] = test system: Pseudomonas aeruginosa ATCC 27853 QC control strain; test: CO-ADD antibacterial MIC assay; type: cell-based; details: initial CO-ADD dose-response screening; ≥80% growth inhibition
Method in brief: (§2)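 Strains grown overnight in cation-adjusted Mueller Hinton broth at 37 °C, diluted 40-fold and regrown 1.5–3 h to mid-log, then seeded at 5 × 10^5 CFU/mL with compound. After 18 h static incubation at 37 °C, OD600 was read; MIC is the lowest concentration giving ≥80% growth inhibition.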

[18] = test system: Escherichia coli ATCC 25922 FDA control strain; test: CO-ADD antibacterial MIC assay; type: cell-based; details: initial CO-ADD dose-response screening; ≥80% growth inhibition
Method in brief: as §2

[19] = test system: methicillin-resistant Staphylococcus aureus ATCC 43300; test: CO-ADD antibacterial MIC assay; type: cell-based; details: initial CO-ADD dose-response screening; ≥80% growth inhibition
Method in brief: as §2

[20] = test system: Acinetobacter baumannii ATCC 19606 type strain; test: CO-ADD antibacterial MIC assay; type: cell-based; details: initial CO-ADD dose-response screening; ≥80% growth inhibition
Method in brief: as §2

[21] = ≥80% inhibition, converted with MW of Table S12
[22] = extended panel, second batch, ≥80 or ≥50% inhibition
[23] = extended panel, 50% inhibition, MIC score 2
[24] = initial CO-ADD dose-response screening, ≥80% growth inhibition

OC(Cn1cncn1)(Cn1cncn1)c1ccc(F)cc1F [Fluconazole, reference compound]
MIC ([1]; MIC = ≥80% inhibition): 0.004 µg/mL
MIC [1, 21]: 0.018 µM
MIC ([2]; Candidozyma auris, comparator antifungals, MIC = ≥80% inhibition): ≤ 0.004 µg/mL
MIC ([2]; Candidozyma auris, comparator antifungals, ≥80% inhibition, converted with MW of Table S12): ≤ 0.018 µM
MIC ([3]; MIC = ≥80% inhibition): ≤ 0.004 µg/mL
MIC [3, 21]: ≤ 0.018 µM
reduction in CFUs (C. albicans (ATCC 90028) [4]): 1.1 log10
MIC ([5]; MIC = ≥80% inhibition): 2 to 4 µg/mL
MIC [5, 21]: 9.25 to 18.5 µM
larva survival (C. albicans (ATCC 90028) [6]): significant larva survival

Cc1c(C)c(C)[c-](C)c1C.Cc1c(C)c(C)[c-](C)c1C.[Cl-].[Cl-].[Cl-].[Cl-].[Rh+3].[Rh+3] [Rh1]
IC50 [7]: 7.3 ± 1.5 µM
MIC Candida albicans ATCC 90028 [1, 22]: 0.39 to 1.56 µM
MIC50 Candida albicans ATCC 90028 [1, 23]: 0.391 to 1.56 µM
MIC Ca [1, 24]: 4 µg/mL
RBC HC10 (human red blood cells; initial CO-ADD screening, 1 h, 10% hemolysis): >32 µg/mL
RBC HC10 (human red blood cells; ranges obtained upon retesting, new batch): 0.4 to 3 µM
MIC [2, 22]: 0.78 µM
MIC50 Candida auris CBS12373 [2, 23]: 0.391 to 0.781 µM
MIC Candida auris CBS10913 [3, 22]: 0.781 to 1.56 µM
MIC50 Candida auris CBS10913 [3, 23]: 0.781 to 1.56 µM
MIC50 Cryptococcus deuterogattii CBS7750 [8]: 0.391 µM
MIC50 Candida tropicalis ATCC 750 [9]: 0.391 to 0.781 µM
HEK CC50 ([10]; initial CO-ADD screening, 20 h): >32 µg/mL
CC50 ([10]; read-out: HEK293 CC50, ranges obtained upon retesting, new batch): > 200 µM
cytotoxicity: none up to stated concentration ([10]; retest): > 200 µM
MIC50 Cryptococcus deuterogattii ATCC 32609 [11]: 0.78 to 1.56 µM
MIC Cryptococcus neoformans ATCC 208821 [5, 22]: 0.195 to 0.391 µM
MIC50 Cryptococcus neoformans ATCC 208821 [5, 23]: 0.195 to 0.391 µM
MIC Cn [5, 24]: 2 µg/mL
MIC Cryptococcus deuterogattii ATCC 32609 [12]: 0.781 to 1.56 µM
MIC Candida tropicalis ATCC 750 [13]: 0.391 to 0.781 µM
MIC [14]: 6.25 µM
MIC [15]: 0.391 µM
MIC50 Candida glabrata ATCC 90030 [16]: 0.391 to 6.25 µM
MIC Pa [17]: >32 µg/mL
MIC Ec [18]: >32 µg/mL
MIC MRSA (Sa) [19]: >32 µg/mL
MIC Ab [20]: >32 µg/mL
